Several values for one entry are separate records, joined by “and”; a condition that tells them apart may be missing. Identical values can stand only once. Like-named read-outs stand apart in the source and are kept apart here.
Assays:
Phytophthora infestans [1] = settings: in vivo
Plasmopara viticola [2] = test: Field trial, grape downy mildew fruit rot, Michigan, U.S.A. (natural infection); format: in vivo; settings: 12 days after last treatment, 100 g/ha of each compound, grapes; for % Control, Incidence (Observed): downy mildew fruit rot incidence; for % Control, Severity (Observed): downy mildew fruit rot severity (diseased fruit surface area)
Procedure: (§1) The results provided by the mixtures were compared with the predicted results that were calculated using the formula set forth by S.R. Colby in Weeds 1967, 15, 20-22 ("Colby's Formula") from the results obtained using each of the compounds individually. The predicted results are also provided in the following Examples.
The trial was conducted in the State of Michigan, U.S.A. Plots consisted of 4 grape vines, cultivar Chancellor. Four such plots arranged in randomized blocks were used for each treatment
Fungicide treatments were applied at day 0, and at 13, 28, 43, 55, 71, and 84 days thereafter. N-[3(1'-chloro-3'-methyl-2'-oxopentan]-3,5-dichloro-4-methylbenzamide was applied as a flowable formulation (23% active ingredient) at 100 grams of active ingredient per hectare, and 2-cyano-N-((ethylamino)carbonyl)-2-(methoxyimino)acetamide was applied as a wettable powder formulation (CURZATE™, 50WP, DuPont, Wilmington, DE) at 100 grams of active ingredient per hectare. The two compounds were also applied as an aqueous tank mix of the two compounds at a dosage of 100 grams of active ingredient per hectare of each compound.
Evaluation of disease in response to natural infection was made 12 days after the last treatment The incidence and severity of downy mildew fruit rot was determined for twenty clusters of fruit selected randomly from the middle two vines of each plot Incidence refers to whether or not the cluster was diseased, and severity is the percentage of diseased fruit surface area. The compounds applied (Compound), and the incidence and severity results, expressed as percent disease control in comparison with untreated plots (% Control, Incidence (Observed) and % Control, Severity (Observed), respectively) are set forth below in TABLE 4 for treatment with N-[3'(1'-chloro-3'-methyl-2'-oxopentan]-3,5-dichloro-4-methylbenzamide, treatment with 2-cyano-N-((ethylamino)carbonyl)-2-(methoxyimino)acetamide and treatment with a mixture of the two compounds. The results obtained using the mixture of the two compounds were compared with predicted results that were calculated using Colby's formula from the results obtained using each of the compounds individually. The predicted results for incidence and severity are set forth below in TABLE 4 as "% Control, Incidence (Predicted)" and "% Control, Severity (Predicted)", respectively.

Phytophthora infestans [3] = format: in vivo; settings: 6 days after inoculation, tomatoes
Phytophthora infestans [4] = settings: in vivo; remark: listed apart in the source
Plasmopara viticola [5] = settings: in vivo
Plasmopara viticola [6] = test: Field trial, grape vines, Campinas, Brazil (heavy natural infection); format: in vivo; settings: grapes
Procedure: as §1
A field trial was conducted in Campinas, Brazil. Plots each consisted of 4 grape vines, cultivar Maria.
Fungicide treatments were applied at 7-day intervals with a total of 5 applications. N-[3'(1'-chloro-3'-methyl-2'-oxopentan]-3,5-dichloro-4-methylbenzamide was applied as a flowable formulation (23% active ingredient) , 2-cyano-N-((ethylamino)carbonyl)-2-(methoxyimino)acetamide as a wettable powder formulation (CURZATE™, 50WP, DuPont, Wilmington, DE). The two compounds were each applied individually in the manner disclosed above and in combination as an aqueous tank mix of the two compounds.
Evaluation of disease in response to a heavy natural infection was made 6 days after the third application, and 7 days after the fifth application. The Compounds applied and dosage rates, expressed as grams of active ingredient per hectare (Compound Dosage Rate (g/ha)) and the results, expressed as percent disease control in comparison with untreated plots (% Control(Observed)) are set forth below in TABLE 6 for treatment with N-[3'(1'-chloro-3'-methyl-2'-oxopentan]-3,5-dichloro4-methylbenzamide, treatment with 2-cyano-N-((ethylamino)carbonyl)-2-(methoxyimino)acetamide and treatment with mixtures of the two compounds. The results obtained using the mixtures of the two compounds were compared with those predicted by Colby's formula from the results provided by each of the two compounds used individually. The predicted results are set forth below in TABLE 6 as "% Control (Predicted)".

Molecule	% Control by Evaluation Interval 5 weeks (Phytophthora infestans [1])	% Control by Evaluation Interval 6 weeks (Phytophthora infestans [1])	% Control by Evaluation Interval 7 weeks (Phytophthora infestans [1])	% Control, Incidence (Observed) (Plasmopara viticola [2])	% Control, Severity (Observed) (Plasmopara viticola [2])	% Control (Observed) (Phytophthora infestans [3]; single compound 0.4 ppm)	% Control (Observed) (Phytophthora infestans [3]; single compound 0.8 ppm)	% Control (Observed) (Phytophthora infestans [4])	% Control (Observed) (Plasmopara viticola [5])	other results
CCC(C)(NC(=O)c1cc(Cl)c(C)c(Cl)c1)C(=O)CCl (stereo not drawn) [Compound A]	99% and 98%	97% and 81%	88% and 56%	43.7%	75.3%	0%	20%	23%	87%	% Control by Evaluation Interval 9 weeks (Phytophthora infestans [1]): 16% and 11%; % Control by Evaluation Interval 10 weeks (Phytophthora infestans [1]): 11% and 6%; % Control by Evaluation Interval 11 weeks (Phytophthora infestans [1]): 1% and 0%; % Control (Observed) (Plasmopara viticola [6]; Seven days after the fifth treatment, A 100 g/ha alone): 21.4%; % Control (Observed) (Plasmopara viticola [6]; Seven days after the fifth treatment, A 200 g/ha alone): 26.1%; % Control (Observed) (Plasmopara viticola [6]; Six days after the third treatment, A 100 g/ha alone): 24.3%; % Control (Observed) (Plasmopara viticola [6]; Six days after the third treatment, A 200 g/ha alone): 21.8%
CCNC(=O)NC(=O)C(C#N)=NOC [Compound C, 2-cyano-N-((ethylamino)carbonyl)-2-(methoxyimino)acetamide]				2.5%	34.6%					% Control (Observed) (Plasmopara viticola [6]; Seven days after the fifth treatment, C 25 g/ha alone): 66.7%; % Control (Observed) (Plasmopara viticola [6]; Seven days after the fifth treatment, C 50 g/ha alone): 59.6%; % Control (Observed) (Plasmopara viticola [6]; Seven days after the fifth treatment, C 100 g/ha alone): 64.3%; % Control (Observed) (Plasmopara viticola [6]; Six days after the third treatment, C 25 g/ha alone): 71.3%; % Control (Observed) (Plasmopara viticola [6]; Six days after the third treatment, C 50 g/ha alone): 64.8%; % Control (Observed) (Plasmopara viticola [6]; Six days after the third treatment, C 100 g/ha alone): 74.1%
COc1ccc(C(=CC(=O)N2CCOCC2)c2ccc(Cl)cc2)cc1OC [Compound D, (E,Z) 4-(3-(4-chlorophenyl)-3-(3,4-dimethoxyphenyl)acryloyl) morpholine]						0%	10%			% Control (Observed) (Phytophthora infestans [3]; single compound 1.5 ppm): 35%
manganese-zinc ethylenebis(dithiocarbamate) [reference compound]	99% and 98%	98% and 88%	95% and 80%					69%	61%	% Control by Evaluation Interval 8 weeks (Phytophthora infestans [1]): 87% and 62%

Source: patent EP0753258B1 (priority 1995, dated 1997)
